From PMC10815436, “Toward New AQP4 Inhibitors: ORI-TRN-002” (International Journal of Molecular Sciences, 2024)
pIC50, pKd: −log10 of the molar value. Several values for one entry are separate records, joined by “and”; a condition that tells them apart may be missing. Identical values can stand only once. Like-named read-outs stand apart in the source and are kept apart here. Values belong to the compound of their own block, whether it stands above or below them.

How the values were obtained:
[1] = Unbound fraction in hepatocytes (BRAINstorm); format: in vitro ADME
From the text: (§1) To evaluate the potential drug-like properties of the electronic homologue ORI-TRN-002, we measured the compound’s properties in the Origenis BRAINstorm™ platform. This platform uses affinity chromatography under standard conditions and standard calibrants to measure compound properties with high accuracy and reproducibility. […] It supersedes the solubility and free fraction limitations of the Aeromics/Simcere drug AER-270 [21] (Figure 2). ORI-TRN-002 requires no prodrug approach and serves as an ideal starting point for further optimization.
(§2) The chemical structures of the three AQP4 inhibitors studied and their measured physico-chemical properties (logD at pH 7.4, log10 of molar human serum albumin affinity constant, percent human plasma protein binding, log10 of human alpha acid glycoprotein affinity constant, unbound fraction in liver, and unbound fraction in hepatocytes). TEXT PRINTED IN THE PICTURE: TGN-020: logD: 0.04; logKaHSA: 3.51; hPPB%: 68.20; logKaRSA: 2.72; logKaAGP: 1.18; fu, liver: 1.00; fu, hep: 0.92 | AER-270: logD: 3.31; logKaHSA: 5.46; hPPB%: 99.50; logKaRSA: 5.26; logKaAGP: 6.94; fu, liver: <0.01; fu, hep: <0.01 | ORI-TRN-002: logD: -0.07; logKaHSA: 2.99; hPPB%: 39.20; logKaRSA: 2.89; logKaAGP: 1.88; fu, liver: 1.00; fu, hep: 0.95

rat serum albumin = rat serum albumin (Rattus norvegicus, UniProt P02770); experiment: Rat serum albumin affinity (BRAINstorm affinity chromatography); format: binding; details: for Kd: read-out: logKaRSA (rat serum albumin affinity) (converted)
From the text: as §1, §2

[2] = Percentage of binding to human plasma proteins (BRAINstorm); format: in vitro ADME
From the text: as §1, §2

human serum albumin = human serum albumin (Homo sapiens, UniProt P02768); experiment: Human serum albumin affinity (BRAINstorm affinity chromatography); format: binding; details: for Kd: read-out: logKaHSA (log10 of molar human serum albumin affinity constant) (converted)
From the text: as §1, §2

[3] = Unbound fraction in liver (BRAINstorm); format: in vitro ADME
From the text: as §1, §2

[4] = Octanol-water distribution coefficient at pH 7.4 (Origenis BRAINstorm platform, affinity chromatography); format: physicochemical
From the text: as §1, §2

AQP4 = system: AQP4; parameters: method as in PMID 32506554, PMID 30934923; details: cited from earlier work
rat AQP4 = rat AQP4 (Rattus norvegicus, UniProt P47863); experiment: Osmotic water permeability of rat AQP4-expressing Xenopus laevis oocytes (high-resolution volume recording, hyposmotic challenge); details: IC50 for rAQP4 (AQP4-mediated water permeability), rat AQP4 in Xenopus laevis oocytes, different concentrations, n = 6, mean ± SEM
From the text: To resolve ORI-TRN-002’s inhibitory effect on AQP4, rat AQP4 (rAQP) was heterologously expressed in Xenopus laevis oocytes, and the AQP4-mediated water permeability was quantified. Following the introduction of an abrupt hyposmotic challenge (−100 mOsm), we determined the osmotic water permeability of the oocytes during the continuous recording of the oocyte volume with a high-resolution volume recording system. This experimental setup allows for the osmotic gradient to be introduced at a faster rate than the rate of cell volume change and sufficiently fast data acquisition to obtain several data points at the initial linear part of the cell volume change, which is required to obtain the osmotic water permeability of an AQP-expressing oocyte. The native oocyte membrane has a low inherent water permeability, thus the uninjected oocytes display a negligible background (see Figure 3A for summarized data on osmotic water permeabilities; compare 0.21 ± 0.13 × 10^−3 cm s^−1, n = 9, for uninjected oocytes to 3.80 ± 0.33 × 10^−3 cm s^−1, n = 11, for AQP4-expressing oocytes; representative volume traces shown as insets)). The oocytes were exposed to the novel drugs (or control solution) for 60 min. prior to the determination of water permeability. The established AQP4 blockers, TGN-020 and AER-270, served as positive controls. […]

AQP4-expressing oocytes = experiment: Membrane potential of treated AQP4-expressing oocytes (toxicity check); format: cell-based, Xenopus laevis
From the text: Following the introduction of an abrupt hyposmotic challenge (−100 mOsm), we determined the osmotic water permeability of the oocytes during the continuous recording of the oocyte volume with a high-resolution volume recording system. This experimental setup allows for the osmotic gradient to be introduced at a faster rate than the rate of cell volume change and sufficiently fast data acquisition to obtain several data points at the initial linear part of the cell volume change, which is required to obtain the osmotic water permeability of an AQP-expressing oocyte. […] The oocytes were exposed to the novel drugs (or control solution) for 60 min. prior to the determination of water permeability. The established AQP4 blockers, TGN-020 and AER-270, served as positive controls.

cerebral edema [5] = details: cited from earlier work
cerebral edema [6] = system: cerebral edema; parameters: method as in doi:10.1097/01.ccm.0000473851.20338.3b, PMID 29635589; details: various traumatic brain injury models; cited from earlier work
human AQP4 = details: cited from earlier work
AQP4.M23 = system: AQP4.M23; parameters: method as in PMID 17178220; details: oocytes; cited from earlier work
[7] = read-out: fu, hep (unbound fraction in hepatocytes)
[8] = human plasma proteins, read-out: hPPB% (percent human plasma protein binding) (converted)
[9] = liver, read-out: fu, liver (unbound fraction in liver)

Chain of human serum albumin (P02768 25-609): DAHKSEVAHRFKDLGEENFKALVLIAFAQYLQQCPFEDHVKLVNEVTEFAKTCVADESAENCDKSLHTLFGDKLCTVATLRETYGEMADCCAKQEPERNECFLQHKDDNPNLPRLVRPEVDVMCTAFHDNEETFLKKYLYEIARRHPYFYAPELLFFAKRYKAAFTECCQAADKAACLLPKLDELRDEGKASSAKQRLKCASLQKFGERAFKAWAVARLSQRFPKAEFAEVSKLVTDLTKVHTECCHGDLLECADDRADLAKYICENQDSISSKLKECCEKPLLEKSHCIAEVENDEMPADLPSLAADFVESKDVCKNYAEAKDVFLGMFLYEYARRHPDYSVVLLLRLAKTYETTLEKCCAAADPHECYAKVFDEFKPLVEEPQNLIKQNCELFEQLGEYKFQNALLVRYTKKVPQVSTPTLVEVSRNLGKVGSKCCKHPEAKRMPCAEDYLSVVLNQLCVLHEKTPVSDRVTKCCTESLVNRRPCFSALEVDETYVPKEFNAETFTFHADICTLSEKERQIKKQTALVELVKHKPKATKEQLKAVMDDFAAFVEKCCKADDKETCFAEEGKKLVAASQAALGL
Chain of rat serum albumin (P02770 25-608): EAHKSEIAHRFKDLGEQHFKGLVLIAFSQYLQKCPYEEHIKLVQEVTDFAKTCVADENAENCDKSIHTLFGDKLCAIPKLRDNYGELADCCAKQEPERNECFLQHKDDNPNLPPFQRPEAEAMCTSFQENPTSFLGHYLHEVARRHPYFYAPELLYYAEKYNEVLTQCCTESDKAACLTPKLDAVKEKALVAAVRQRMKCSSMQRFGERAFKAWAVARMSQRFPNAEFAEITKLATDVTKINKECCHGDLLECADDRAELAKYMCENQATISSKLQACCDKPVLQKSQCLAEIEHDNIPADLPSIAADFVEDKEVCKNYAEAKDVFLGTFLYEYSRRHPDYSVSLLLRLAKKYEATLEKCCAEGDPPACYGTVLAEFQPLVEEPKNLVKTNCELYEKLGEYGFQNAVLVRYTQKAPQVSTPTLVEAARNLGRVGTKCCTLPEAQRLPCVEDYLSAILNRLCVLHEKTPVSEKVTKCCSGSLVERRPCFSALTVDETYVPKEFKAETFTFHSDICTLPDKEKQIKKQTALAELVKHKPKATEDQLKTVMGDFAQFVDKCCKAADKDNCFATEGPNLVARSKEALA
Chain of rat AQP4 (P47863 23-323): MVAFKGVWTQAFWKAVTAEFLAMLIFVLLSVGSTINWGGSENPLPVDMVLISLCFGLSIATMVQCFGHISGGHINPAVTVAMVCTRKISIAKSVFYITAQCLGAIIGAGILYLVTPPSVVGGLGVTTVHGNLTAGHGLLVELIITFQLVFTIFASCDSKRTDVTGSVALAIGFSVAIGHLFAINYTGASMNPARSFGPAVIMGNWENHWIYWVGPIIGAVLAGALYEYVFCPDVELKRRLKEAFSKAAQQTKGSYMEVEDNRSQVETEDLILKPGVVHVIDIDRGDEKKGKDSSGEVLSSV

fraction unbound [1, 7]: 0.92
Kd (rat serum albumin): 1910 µM
fraction unbound [2, 8]: 0.318
Kd (human serum albumin): 309 µM
fraction unbound [3, 9]: 1
chromatographic logD ([4]; octanol/water): 0.04
Compound: O=C(Nc1nncs1)c1cccnc1 [TGN-020, 2-(nicotinamide)-1,3,4-thiadiazole]

Compound: CCCCNc1cc(C(=O)O)cc(S(N)(=O)=O)c1Oc1ccccc1 [bumetanide]
block of AQP4-mediated water permeability (AQP4): not be effective blockers

fraction unbound [1, 7]: 0.95
pIC50 (rat AQP4): ~5.52 and 5.54
Kd (rat serum albumin): 1290 µM
fraction unbound [2, 8]: 0.608
Kd (human serum albumin): 1020 µM
fraction unbound [3, 9]: 1
chromatographic logD ([4]; octanol/water): -0.07
Compound: O=c1[nH]c(-c2cccnc2)nc2[nH]ncc12 [ORI-TRN-002, 6-(pyridin-3-yl)-1H-pyrazolo[3,4-d]pyrimidin-4(5H)-one]
membrane potential of treated oocytes (AQP4-expressing oocytes; 20 μM acute application, 10 min, non-treated -25.6 ± 0.50 mV, n = 9): −26.9 ± 0.61 mV
membrane potential of treated oocytes (AQP4-expressing oocytes; 20 µM, 60 min, non-treated −26.2 ± 0.62 mV, n = 12): −24.4 ± 0.74 mV

Compound: CCCCNc1cc(C(=O)Nc2ccncc2)cc(S(N)(=O)=O)c1Oc1ccccc1 [AqB013]
block of AQP4-mediated water permeability (AQP4): not be effective blockers

Compound: CC[N+](CC)(CC)CC [tetraethylammonium (TEA), tetraethylammonium]
block of AQP4-mediated water permeability (AQP4): not be effective blockers

Compound: O=C(Nc1cc(C(F)(F)F)cc(C(F)(F)F)c1)c1cc(Cl)ccc1OP(=O)(O)O [AER-271, 2-([3,5-Bis(trifluoromethyl)phenyl]carbamoyl)-4-chlorophenyl dihydrogen phosphate]
AQP4-mediated cerebral edema (cerebral edema [5]; rodent model of transient MCAO): selectively and effectively reduced
neurological outcome (cerebral edema [5]; rodent model of transient MCAO): improved
swelling in two models of CNS injury complicated by cerebral edema (cerebral edema [5]; water intoxication and ischemic stroke modeled by MCAO): reduce swelling
reduction of cerebral edema (cerebral edema [6]): ineffective

Compound: O=C(Nc1cc(C(F)(F)F)cc(C(F)(F)F)c1)c1cc(Cl)ccc1O [AER-270, N-[3,5-bis (trifluoromethyl)phenyl]-5-chloro-2-hydroxybenzamide]
fraction unbound [1]: < 0.01
pKd (rat serum albumin): 5.26
fraction unbound ([2]; plasma): 0.005
pKd (human serum albumin): 5.46
fraction unbound [3]: < 0.01
maximal inhibition of human AQP4 (human AQP4): 20%
chromatographic logD [4]: 3.31

Compound: CC(=O)Nc1nnc(S(N)(=O)=O)s1 [acetazolamide]
block of AQP4-mediated water permeability (AQP4): not be effective blockers

Compound: CCOc1ccc2nc(S(N)(=O)=O)sc2c1 [Ethoxyzolamide]
inhibition of AQP4.M23 (AQP4.M23): inhibit
